# Bridge positions count the residues as written; N and C are the ends. Peptide text beside a SMILES is read from it.
# Molecular target: Sodium channel protein type 5 subunit alpha (Homo sapiens, UniProt Q14524)
# Assay: Inhibition of human NaV1.5 at -140 mV holding potential by whole-cell patch clamp assay
# Chain of Sodium channel protein type 5 subunit alpha (Q14524 whole entry): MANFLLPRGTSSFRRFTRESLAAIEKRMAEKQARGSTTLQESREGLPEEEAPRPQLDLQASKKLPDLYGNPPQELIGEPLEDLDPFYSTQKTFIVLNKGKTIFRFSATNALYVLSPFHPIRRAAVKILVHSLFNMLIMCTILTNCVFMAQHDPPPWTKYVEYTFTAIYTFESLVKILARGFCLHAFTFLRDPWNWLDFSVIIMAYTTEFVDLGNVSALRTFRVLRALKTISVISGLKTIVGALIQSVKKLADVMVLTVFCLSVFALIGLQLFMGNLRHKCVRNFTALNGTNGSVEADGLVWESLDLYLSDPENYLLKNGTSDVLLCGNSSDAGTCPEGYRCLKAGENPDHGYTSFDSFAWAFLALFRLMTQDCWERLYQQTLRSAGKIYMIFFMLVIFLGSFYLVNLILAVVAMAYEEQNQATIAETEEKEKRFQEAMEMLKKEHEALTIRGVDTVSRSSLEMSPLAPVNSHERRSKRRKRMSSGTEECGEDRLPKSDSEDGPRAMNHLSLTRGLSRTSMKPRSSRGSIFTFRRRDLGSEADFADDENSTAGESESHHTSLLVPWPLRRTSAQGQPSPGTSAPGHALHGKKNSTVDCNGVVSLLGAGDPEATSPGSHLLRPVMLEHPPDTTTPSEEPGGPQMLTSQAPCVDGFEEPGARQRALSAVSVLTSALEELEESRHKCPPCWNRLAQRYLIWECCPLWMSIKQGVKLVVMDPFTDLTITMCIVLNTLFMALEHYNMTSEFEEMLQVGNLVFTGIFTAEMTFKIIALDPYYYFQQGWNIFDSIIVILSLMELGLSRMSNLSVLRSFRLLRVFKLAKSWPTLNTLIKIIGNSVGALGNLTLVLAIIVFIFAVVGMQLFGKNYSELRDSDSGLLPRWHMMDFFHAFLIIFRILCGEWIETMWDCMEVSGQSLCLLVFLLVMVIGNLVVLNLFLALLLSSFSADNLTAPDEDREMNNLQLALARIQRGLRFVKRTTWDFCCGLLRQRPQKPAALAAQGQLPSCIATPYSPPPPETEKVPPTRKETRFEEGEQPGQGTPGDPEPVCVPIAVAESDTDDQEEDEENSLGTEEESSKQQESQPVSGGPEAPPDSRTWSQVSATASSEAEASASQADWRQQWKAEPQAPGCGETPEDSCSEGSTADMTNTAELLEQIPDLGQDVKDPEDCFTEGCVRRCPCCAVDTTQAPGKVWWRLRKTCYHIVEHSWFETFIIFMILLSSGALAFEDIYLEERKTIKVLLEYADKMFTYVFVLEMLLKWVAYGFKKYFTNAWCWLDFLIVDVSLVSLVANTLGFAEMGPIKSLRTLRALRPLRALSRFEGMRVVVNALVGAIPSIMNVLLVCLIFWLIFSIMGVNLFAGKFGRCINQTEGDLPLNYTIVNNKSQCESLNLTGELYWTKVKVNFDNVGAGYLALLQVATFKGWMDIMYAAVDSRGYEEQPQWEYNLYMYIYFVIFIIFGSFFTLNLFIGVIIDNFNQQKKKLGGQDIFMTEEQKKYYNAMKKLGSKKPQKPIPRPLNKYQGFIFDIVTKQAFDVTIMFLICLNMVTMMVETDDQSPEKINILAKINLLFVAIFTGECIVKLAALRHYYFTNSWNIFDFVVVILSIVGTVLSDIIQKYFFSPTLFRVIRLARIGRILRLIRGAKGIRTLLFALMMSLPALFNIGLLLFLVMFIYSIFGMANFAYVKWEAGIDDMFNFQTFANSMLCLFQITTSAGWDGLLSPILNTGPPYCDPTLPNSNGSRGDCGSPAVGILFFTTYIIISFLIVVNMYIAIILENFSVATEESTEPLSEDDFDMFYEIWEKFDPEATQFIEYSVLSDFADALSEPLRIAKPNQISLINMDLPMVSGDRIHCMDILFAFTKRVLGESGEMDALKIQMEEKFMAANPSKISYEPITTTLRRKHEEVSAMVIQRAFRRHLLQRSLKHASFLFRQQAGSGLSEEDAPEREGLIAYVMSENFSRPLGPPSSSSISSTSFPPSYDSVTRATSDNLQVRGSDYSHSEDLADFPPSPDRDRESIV
row,Structure (SMILES),IC50 [µM]
1,"CC[C@H](C)[C@@H]1NC(=O)[C@@H]2CSSC[C@@H]3NC(=O)[C@H](C(C)C)NC(=O)[C@H](CC(C)C)NC(=O)[C@H](CC(N)=O)NC(=O)[C@@H]4CCCN4C(=O)[C@H](CCCNC(=N)N)NC(=O)[C@H](CSSC[C@H](NC(=O)[C@@H](N)CC(=O)O)C(=O)N[C@@H](CC(C)C)C(=O)N[C@@H](C)C(=O)N[C@@H](Cc4ccccc4)C(=O)N[C@@H](CCSC)C(=O)N[C@@H](CCCNC(=N)N)C(=O)N[C@@H](CCCCN)C(=O)N2)NC(=O)[C@H](CSSC[C@@H](C(=O)N[C@@H](CCCCN)C(=O)N[C@@H](Cc2ccc(O)cc2)C(=O)N[C@H](C(=O)N[C@@H](Cc2ccccc2)C(N)=O)C(C)C)NC(=O)[C@H](Cc2c[nH]c4ccccc24)NC(=O)[C@H](CCCCN)NC(=O)[C@H](Cc2cnc[nH]2)NC(=O)[C@H]([C@@H](C)O)NC(=O)[C@H](CCCNC(=N)N)NC(=O)[C@H](CO)NC3=O)NC(=O)[C@H](CCCCN)NC(=O)[C@H](CC(=O)O)NC(=O)[C@H](CC(N)=O)NC(=O)[C@H](CC(=O)O)NC(=O)[C@@H]2CCCN2C1=O (H-DCLAFMRKCIPDNDKCCRPNLVCSRTHKWCKYVF-NH2; disulfide 2-17, 9-23, 16-30)",> 5
2,"CC[C@H](C)[C@@H]1NC(=O)[C@@H]2CSSC[C@@H]3NC(=O)[C@H](C(C)C)NC(=O)[C@H](CC(C)C)NC(=O)[C@H](CC(N)=O)NC(=O)[C@@H]4CCCN4C(=O)[C@H](CCCNC(=N)N)NC(=O)[C@H](CSSC[C@H](NC(=O)[C@@H](N)CC(=O)O)C(=O)N[C@@H](CC(C)C)C(=O)NCC(=O)N[C@@H](C)C(=O)N[C@@H](Cc4ccccc4)C(=O)N[C@@H](CCCNC(=N)N)C(=O)N[C@@H](CCCCN)C(=O)N2)NC(=O)[C@H](CSSC[C@@H](C(=O)N[C@@H](CCCCN)C(=O)N[C@@H](Cc2ccc(O)cc2)C(=O)N[C@H](C(=O)N[C@@H](Cc2ccccc2)C(N)=O)C(C)C)NC(=O)[C@H](Cc2c[nH]c4ccccc24)NC(=O)[C@H](CCCCN)NC(=O)[C@H](Cc2cnc[nH]2)NC(=O)[C@H](CC(C)C)NC(=O)[C@H](CCCNC(=N)N)NC(=O)[C@H](CO)NC3=O)NC(=O)[C@H](CCCCN)NC(=O)[C@H](CC(=O)O)NC(=O)[C@H](CC(N)=O)NC(=O)[C@H](CC(=O)O)NC(=O)[C@@H]2CCCN2C1=O (H-DCLGAFRKCIPDNDKCCRPNLVCSRLHKWCKYVF-NH2; disulfide 2-17, 9-23, 16-30)",> 10
3,"CC[C@H](C)[C@@H]1NC(=O)[C@@H]2CSSC[C@@H]3NC(=O)[C@H](C(C)C)NC(=O)[C@H](CC(C)C)NC(=O)[C@H](CC(N)=O)NC(=O)[C@@H]4CCCN4C(=O)[C@H](CCCNC(=N)N)NC(=O)[C@H](CSSC[C@H](NC(=O)[C@@H](N)CC(=O)O)C(=O)N[C@@H](CC(C)C)C(=O)NCC(=O)N[C@@H](Cc4ccccc4)C(=O)N[C@@H](CCSC)C(=O)N[C@@H](CCCNC(=N)N)C(=O)N[C@@H](CCCCN)C(=O)N2)NC(=O)[C@H](CSSC[C@@H](C(=O)N[C@@H](CCCCN)C(=O)N[C@@H](Cc2ccc(O)cc2)C(=O)N[C@H](C(=O)N[C@@H](Cc2ccccc2)C(N)=O)C(C)C)NC(=O)[C@H](Cc2c[nH]c4ccccc24)NC(=O)[C@H](CCCCN)NC(=O)[C@H](Cc2cnc[nH]2)NC(=O)[C@H]([C@@H](C)O)NC(=O)[C@H](CCCNC(=N)N)NC(=O)[C@H](C)NC3=O)NC(=O)[C@H](CCCCN)NC(=O)[C@H](CC(=O)O)NC(=O)[C@H](CC(N)=O)NC(=O)[C@H](CC(=O)O)NC(=O)[C@@H]2CCCN2C1=O (H-DCLGFMRKCIPDNDKCCRPNLVCARTHKWCKYVF-NH2; disulfide 2-17, 9-23, 16-30)",> 4.7

# Reference: ChEMBL document CHEMBL3414527, “Engineering potent and selective analogues of GpTx-1, a tarantula venom peptide antagonist of the Na(V)1.7 sodium channel” (J Med Chem, 2015)
